# Experimental data taken from patent EP0182152B1, “Antitumor antibiotics (LL-E33288 Complex)” (AMERICAN CYANAMID COMPANY, priority 1984, dated 1986).
# Legend:
# Assay type in all cases: in vivo, BDF1 mice
# [1] = test system: melanotic melanoma B16; assay: Melanotic Melanoma B16 Test
# Source text: (§1) Certain in vivo testing systems and protocols have been developed by the National Cancer Institute for testing compounds to determine their suitability as anti-neoplastic agents. These have been reported in "Cancer Chemotherapy Reports", Part III, Vol. 3, No. 2 (1972), Geran, et al. These protocols have established standardized screening tests which are generally followed in the field of testing for antitumor agents. Of these systems, lymphocytic leukemia P388, melanotic melanoma B16, L1210 leukemia and colon 26 adenocarcinoma are particularly significant to the present invention. These neoplasms are utilized for testing as transplantable tumors in mice. Generally, significant anti-tumor activity, shown in these protocols by a percentage increase of mean survival times of the treated animals (T) over the control animals (C), is indicative of similar results in human leukemias and solid tumors.
# The animals used were BDF1 mice, all of the same sex, weighing a minimum of 17 g and all within a 3 g weight range. There are normally 6 animals per test group. A 1 g portion of melanotic melanoma β16 tumor was homogenized in 10 ml of cold balanced salt solution and a 0.5 ml aliquot of the homogenate was implanted intraperitoneally into each of the test mice. LL-E33288 antibiotics were tested in the β16 system both as the individual β1-Br and γ1-Br components and as a complex of all components (Bromo-complex). The test compounds were administered intraperitioneally on days 1 through 9 (relative to tumor inoculation) at various doses. The mice were weighed and survivors recorded on a regular basis for 60 days. The median survival time and the ratio of survival time for treated (T)/control (C) animals were calculated. The positive control compounds were Cisplatin or Adriamycin. The results of this test appear in Table V. If T/C X 100 (%) is 125 or over, the tested compound is considered to have significant anti-tumor activity.
# (§2) In the same manner, the following iodo-components were tested for antineoplastic activity.
# [2] = test system: lymphocytic leukemia L1210; assay: Lymphocytic Leukemia L1210 Test
# Source text: as §1
# The animals used were BDF1 mice, all of one sex, weighing a minimum of 17 g and all within a 3 g weight range. There were 6 mice in each test group and 18 in control groups. The tumor transplant was by intraperitoneal injection of 0.5 ml of lymphocytic leukemia L1210 at a concentration of 10^5 cells per mouse. LL-E33288 antibiotics were tested in the L1210 system both as the individual β1-Br component and as a complex of all components (Bromo-complex). The test compounds were administered on days 1, 5 and 9 or days 1 through 9 (relative to tumor inoculation) at various doses. The mice were weighed and survivors recorded on a regular basis for 30 days. The median survival time and the ratio of survival time for treated (T)/control (C) animals were calculated. The positive control compound was 1,4-dihydroxy-5,8-bis[[2-(2-hydroxyethylamino)ethyl]amino]anthraquinone dihydrochloride or Cisplatin given intraperitoneally at the indicated dose. If T/C X 100 (%) is 125 or over, the tested compound is considered to have significant anti-tumor activity.
# as §2
# [3] = test system: lymphocytic leukemia P388; assay: Lymphocytic Leukemia P388 Test; settings: Table IX
# Source text: as §1
# The animals used were BDF1 mice, all of one sex, weighing a minimum of 17 g and all within a 3 g weight range. There were 5 or 6 mice per test group. The tumor transplant was by intraperitoneal injection of 0.5 ml of dilute ascitic fluid containing 10^6 cells of lymphocytic leukemia P388. LL-E33288 antibiotics were tested in the P388 system both as the individual β1-Br and […] components and as a complex of all components (Bromo-complex). The test compounds were administered intrapertioneally at a volume of 0.5 ml in 0.2% Klucel in normal saline on days 1, 5 and 9 (relative to tumor inoculation) at the indicated doses. The mice were weighed and the survivors recorded on a regular basis for 30 days. The median survival time and the ratio of survival time for treated (T)/control (C) animals were calculated. The positive control compound was Cisplatin given as an intraperitioneal injection in 0.5 ml of 0.2% Klucel on days 1, 5 and 9 at the indicated doses.
# If T/C X 100 (%) is 125 or over, the tested compound is considered to have significant anti-tumor activity.
# as §2
# [4] = Table V, dose 0.4 mg/kg, control 19 days, survivors recorded for 60 days
# [5] = Table V, dose 0.8 mg/kg, control 19 days, survivors recorded for 60 days
# [6] = Table X, dose 0.2 mg/kg, control value not given
# [7] = Table X, dose 0.4 mg/kg, control value not given
# [8] = Table X, dose 0.8 mg/kg, control value not given
# [9] = Table VI, days 1, 5 and 9 or days 1 through 9, dose 0.4 mg/kg, control 16.7 days
# [10] = Table VI, days 1, 5 and 9 or days 1 through 9, dose 0.8 mg/kg, control 16.7 days
# [11] = Table VI, i.p., dose 1.6 mg/kg, control 16.7 days
# [12] = Table XI, dose 0.4 mg/kg, control 9 days
# [13] = Table XI, dose 0.8 mg/kg, control 9 days
# [14] = Table XI, dose 1.6 mg/kg, control 9 days
# [15] = Table XI, dose 3.2 mg/kg, control 9 days
# [16] = Test 1, dose 1.6 mg/kg, control 13 days
# [17] = Test 2, dose 0.8 mg/kg, control 11 days
# [18] = Test 2, dose 1.6 mg/kg, control 11 days
structure (smiles),measurement,setting,value
COc1cccc2c1C(=O)c1c(O)c3c(c(O)c1C2=O)C[C@@](O)(C(=O)CO)C[C@@H]3O[C@H]1C[C@H](N)[C@H](O)[C@H](C)O1 [Adriamycin],Median Survival,[1]; [4],> 60 days
same,T/C x 100,[1]; [4],> 316%
same,Median Survival,[1]; [5],> 60 days
same,T/C x 100,[1]; [5],> 316%
same,Median Survival,[1]; [6],34.5 days
same,T/C x 100,[1]; [6],203%
same,Median Survival,[1]; [7],40 days
same,T/C x 100,[1]; [7],235%
same,Median Survival,[1]; [8],48 days
same,T/C x 100,[1]; [8],282%
"Cl.Cl.O=C1c2c(O)ccc(O)c2C(=O)c2c(NCCNCCO)ccc(NCCNCCO)c21 [Novantrone®, 1,4-dihydroxy-5,8-bis[[2-(2-hydroxyethylamino)ethyl]amino]anthraquinone dihydrochloride]",Median Survival,[2]; [9],30 days
same,T/C x 100,[2]; [9],180%
same,Median Survival,[2]; [10],30 days
same,T/C x 100,[2]; [10],180%
same,Median Survival,[2]; [11],30 days
same,T/C x 100,[2]; [11],180%
same,Median Survival,[2]; [12],11 days
same,T/C x 100,[2]; [12],122%
same,Median Survival,[2]; [13],12 days
same,T/C x 100,[2]; [13],133%
same,Median Survival,[2]; [14],11.5 days
same,T/C x 100,[2]; [14],128%
same,Median Survival,[2]; [15],15 days
same,T/C x 100,[2]; [15],167%
same,Median Survival,[3]; [16],22.5 days
same,T/C x 100,[3]; [16],173%
same,Median Survival,[3]; [17],16 days
same,T/C x 100,[3]; [17],145%
same,Median Survival,[3]; [18],19 days
same,T/C x 100,[3]; [18],173%
